Values of other authors, collected in patent US20040157848A1, “Methods and compositions for the treatment of herpes virus infections using cyclooxygenase-2 selective inhibitors or cyclooxygenase-2 inhibitors in combination with antiviral agents” (Pharmacia Corporation, priority 2002, published 2004).

Assays:
herpes virus = conditions: supplementation with exogenous GSH, in vitro
[1] = test system: cytomegalovirus induced reactive oxygen species; conditions: cytomegalovirus infected human smooth muscle

N[C@@H](CCC(=O)N[C@@H](CS)C(=O)NCC(=O)O)C(=O)O [GSH, glutathione]
inhibition of the replication of herpes virus (herpes virus): over 99%

CC(=O)Oc1ccccc1C(=O)O [aspirin]
cytomegalovirus induced reactive oxygen species [1]: reduces
